# Data from patent publication US20240376091A1, “THIADIAZOLEAMIDE DERIVATIVES AND THEIR APPLICATIONS” (ZHEJIANG UNIVERSITY, priority 2021, published 2024).
# Biological target: T1, AR (Homo sapiens, UniProt P10275, T878A)
# T1 construct: into the androgen-dependent PCa cells (LNCaP); endogenous in cells; host or cells: LNCaP-ARR2PB-eGFP
# T1 sequence (P10275 1-920 T878A): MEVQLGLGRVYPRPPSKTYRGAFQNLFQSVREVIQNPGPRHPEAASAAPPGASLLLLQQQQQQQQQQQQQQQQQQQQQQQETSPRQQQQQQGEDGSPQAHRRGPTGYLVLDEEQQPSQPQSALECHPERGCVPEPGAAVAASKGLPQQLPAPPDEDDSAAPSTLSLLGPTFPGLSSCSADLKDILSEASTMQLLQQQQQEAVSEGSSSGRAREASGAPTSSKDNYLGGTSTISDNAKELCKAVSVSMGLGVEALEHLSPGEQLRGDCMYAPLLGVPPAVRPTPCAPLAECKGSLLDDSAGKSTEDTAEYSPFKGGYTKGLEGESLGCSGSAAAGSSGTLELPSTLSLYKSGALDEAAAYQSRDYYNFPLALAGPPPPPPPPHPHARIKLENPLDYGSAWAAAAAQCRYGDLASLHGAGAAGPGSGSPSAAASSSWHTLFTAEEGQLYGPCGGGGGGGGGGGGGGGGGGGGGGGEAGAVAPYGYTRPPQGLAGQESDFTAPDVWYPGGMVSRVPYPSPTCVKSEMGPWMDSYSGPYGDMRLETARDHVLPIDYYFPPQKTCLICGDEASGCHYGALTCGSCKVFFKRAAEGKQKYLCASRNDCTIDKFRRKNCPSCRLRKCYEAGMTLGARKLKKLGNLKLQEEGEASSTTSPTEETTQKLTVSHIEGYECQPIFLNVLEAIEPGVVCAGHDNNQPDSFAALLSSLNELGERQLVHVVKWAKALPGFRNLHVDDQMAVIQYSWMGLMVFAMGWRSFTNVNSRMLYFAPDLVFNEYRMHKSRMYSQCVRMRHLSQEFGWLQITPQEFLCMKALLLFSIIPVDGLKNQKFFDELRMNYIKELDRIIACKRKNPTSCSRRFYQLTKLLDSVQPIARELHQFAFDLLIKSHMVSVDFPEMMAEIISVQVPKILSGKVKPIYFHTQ
# Test: AR transcriptional activity, LNCaP-ARR2PB-eGFP reporter cells
# Type: cell-based
# Details: read-out: IC50 AR transcriptional activities
# Text: Detection principles: We conducted a stable transfection of promoter ARR2PB known for its strong AR responsiveness, into the androgen-dependent PCa cells (LNCaP). The expression of enhanced green fluorescent protein (eGFP) is depending on the degree of activation of AR. Therefore, LNCaP-ARR2PB-eGFP cell line could quantitatively determine the AR antagonistic activities of the compounds by evaluating the expression of eGFP.
row,Structure (SMILES),IC50 [µM]
1,"Cc1oc(-c2cccc(C(F)(F)F)c2)cc1C(=O)Nc1nc(CC(C)(C)N)ns1 [Compound A-93, N-(3-(2-amino-2-methylpropyl)-1,2,4-thiadiazol-5-yl)-2-methyl-5-(3-(trifluoromethyl)phenyl)furan-3-carboxamide]",0.03
2,"COc1cccc(-c2cc(C(=O)Nc3nc(CC(C)=O)ns3)c(C)o2)c1 [Compound A-4, 5-(3-Methoxyphenyl)-2-methyl-N-(3-(2-oxopropyl)-1,2,4-thiadiazol-5-yl)furan-3-carboxamide]",0.35
3,"O=C(Nc1nc(CN2CCCC2)ns1)c1csc(-c2cccc(OC(F)(F)F)c2)c1 [Compound D-53, N-(3-(pyrrolidin-1-ylmethyl)-1,2,4-thiadiazol-5-yl)-5-(3-(trifluoromethoxy)phenyl)thiophene-3-carboxamide]",27.3
4,"COc1cccc(-c2cc(C(=O)Nc3nc(CC(C)=O)ns3)c(C)s2)c1 [Compound C-3, 5-(3-Methoxyphenyl)-2-methyl-N-(3-(2-oxopropyl)-1,2,4-thiadiazol-5-yl)thiophene-3-carboxamide]",43.7
5,"Cc1oc(-c2cccc(C(F)(F)F)c2)cc1C(=O)Nc1nc(CC(C)N2CCCCC2)ns1 (stereo not drawn) [Compound A-41, 2-Methyl-N-(3-(2-(piperidin-1-yl)propyl)-1,2,4-thiadiazol-5-yl)-5-(3-(trifluoromethyl)phenyl)furan-3-carboxamide]",0.17
6,"Cc1sc(-c2cccc(C(F)(F)F)c2)cc1C(=O)Nc1nc(CCl)ns1 [Compound C-40, N-(3-(chloromethyl)-1,2,4-thiadiazol-5-yl)-2-methyl-5-(3-(trifluoromethyl)phenyl)thiophene-3-carboxamide]",12.3
7,"O=C(Nc1nc(CN2CCCC2)ns1)c1cc(-c2cccc(C(F)(F)F)c2)co1 [Compound G-24, N-(3-(pyrrolidin-1-ylmethyl)-1,2,4-thiadiazol-5-yl)-4-(3-(trifluoromethyl)phenyl)furan-2-carboxamide]",24.2
8,"Cc1oc(-c2cccc(C#N)c2)cc1C(=O)Nc1nc(CC(C)N2CCOCC2)ns1 (stereo not drawn) [Compound A-52, 5-(3-Cyanophenyl)-2-methyl-N-(3-(2-morpholinopropyl)-1,2,4-thiadiazol-5-yl)furan-3-carboxamide]",0.76
9,"CC(=O)Cc1nsc(NC(=O)c2cc(-c3cccc(C#N)c3)oc2C(F)(F)F)n1 [Compound E-2, 5-(3-Cyanophenyl)-N-(3-(2-oxopropyl)-1,2,4-thiadiazol-5-yl)-2-(trifluoromethyl)furan-3-carboxamide]",2.23
10,"Cc1oc(-c2cccc(C#N)c2)cc1C(=O)Nc1nc(CCl)ns1 [Compound A-112, N-(3-(chloromethyl)-1,2,4-thiadiazol-5-yl)-5-(3-cyanophenyl)-2-methylfuran-3-carboxamide]",1.87
11,"CC(Cc1nsc(NC(=O)c2cc(-c3cccc(OC(F)(F)F)c3)co2)n1)N1CCN(C)CC1 (stereo not drawn) [Compound G-9, N-(3-(2-(4-methylpiperazin-1-yl)propyl)-1,2,4-thiadiazol-5-yl)-4-(3-(trifluoromethoxy)phenyl)furan-2-carboxamide]",47.2
12,"CC(=O)Cc1nsc(NC(=O)c2coc(-c3cccc(OC(F)F)c3)c2)n1 [Compound B-5, 5-(3-(Difluoromethoxy)phenyl)-N-(3-(2-oxopropyl)-1,2,4-thiadiazol-5-yl)furan-3-carboxamide]",19.6
13,"CC(=O)Cc1nsc(NC(=O)c2cc(-c3cccc(F)c3)oc2C)n1 [Compound A-7, 5-(3-Fluorophenyl)-2-methyl-N-(3-(2-oxopropyl)-1,2,4-thiadiazol-5-yl)furan-3-carboxamide]",1.16
14,"CC(=O)Cc1nsc(NC(=O)c2cc(-c3cccc(OC(F)(F)F)c3)c(C)o2)n1 [Compound F-4, 5-Methyl-N-(3-(2-oxopropyl)-1,2,4-thiadiazol-5-yl)-4-(3-(trifluoromethoxy)phenyl)furan-2-carboxamide]",35.7
15,"CCN(CC)C(C)Cc1nsc(NC(=O)c2cc(-c3cccc(C(F)(F)F)c3)sc2C)n1 (stereo not drawn) [Compound C-7, N-(3-(2-(diethylamino)propyl)-1,2,4-thiadiazol-5-yl)-2-methyl-5-(3-(trifluoromethyl)phenyl)thiophene-3-carboxamide]",10.6
16,"CCN(CC)Cc1nsc(NC(=O)c2cc(-c3cccc(OC)c3)sc2C)n1 [Compound C-50, N-(3-((diethylamino)methyl)-1,2,4-thiadiazol-5-yl)-5-(3-methoxyphenyl)-2-methyl-thiophene-3-carboxamide]",12.5
17,"Cc1oc(C(=O)Nc2nc(CC(C)(F)F)ns2)cc1-c1cccc(OC(F)(F)F)c1 [Compound F-17, N-(3-(2,2-difluoropropyl)-1,2,4-thiadiazol-5-yl)-5-methyl-4-(3-(trifluoromethoxy)phenyl)furan-2-carboxamide]",25
18,"COc1cccc(-c2cc(C(=O)Nc3nc(CC(C)N4CCOCC4)ns3)oc2C)c1 (stereo not drawn) [Compound F-8, 4-(3-Methoxyphenyl)-5-methyl-N-(3-(2-morpholinopropyl)-1,2,4-thiadiazol-5-yl)furan-2-carboxamide]",17.6
19,"[2H]c1c(-c2cccc(C(F)(F)F)c2)oc(C)c1C(=O)Nc1nc(CC(C)=O)ns1 [Compound A-34, 2-Methyl-N-(3-(2-oxopropyl)-1,2,4-thiadiazol-5-yl)-5-(3-(trifluoromethyl)phenyl)furan-4-d-3-carboxamide]",0.04
20,"CC(O)Cc1nsc(NC(=O)c2coc(-c3cccc(C(F)(F)F)c3)c2)n1 (stereo not drawn) [Compound B-20, N-(3-(2-hydroxypropyl)-1,2,4-thiadiazol-5-yl)-5-(3-(trifluoromethyl)phenyl)furan-3-carboxamide]",11.5
21,"CC(Cc1nsc(NC(=O)c2cc(-c3cccc(C(F)(F)F)c3)sc2C)n1)=C(F)F [Compound C-30, N-(3-(3,3-difluoro-2-methylallyl)-1,2,4-thiadiazol-5-yl)-2-methyl-5-(3-(trifluoromethyl)phenyl)thiophene-3-carboxamide]",12.7
22,"CC(=O)Cc1nsc(NC(=O)c2cc(-c3cccc(C(N)=O)c3)oc2C)n1 [Compound A-28, 5-(3-Carbamoylphenyl)-2-methyl-N-(3-(2-oxopropyl)-1,2,4-thiadiazol-5-yl)furan-3-carboxamide]",1.03
23,"CC(=O)Cc1nsc(NC(=O)c2cc(-c3cccc(OC(F)F)c3)oc2C)n1 [Compound A-14, 5-(3-(Difluoromethoxy)phenyl)-2-methyl-N-(3-(2-oxopropyl)-1,2,4-thiadiazol-5-yl)furan-3-carboxamide]",0.05
24,"CC(Cc1nsc(NC(=O)c2csc(-c3cccc(OC(F)F)c3)c2)n1)N1CCN(C)CC1 [Compound D-19, 5-(3-(Difluoromethoxy)phenyl)-N-(3-(2-(4-methylpiperazin-1-yl)propyl)-1,2,4-thiadiazol-5-yl)thiophene-3-carboxamide]",19.2
25,"CC(=O)Cc1nsc(NC(=O)c2cc(-c3cccc(OC(F)(F)F)c3)oc2C)n1 [Compound A-13, 2-Methyl-N-(3-(2-oxopropyl)-1,2,4-thiadiazol-5-yl)-5-(3-(trifluoromethoxy)phenyl)furan-3-carboxamide]",0.48
26,"CC(=O)Cc1nsc(NC(=O)c2csc(-c3cccc(C(F)(F)F)c3)c2)n1 [Compound D-1, N-(3-(2-oxopropyl)-1,2,4-thiadiazol-5-yl)-5-(3-(trifluoromethyl)phenyl)thiophene-3-carboxamide]",25
27,"CC(Cc1nsc(NC(=O)c2csc(-c3cccc(C#N)c3)c2)n1)N1CCCC1 [Compound D-12, 5-(3-Cyanophenyl)-N-(3-(2-(pyrrolidin-1-yl)propyl)-1,2,4-thiadiazol-5-yl)thiophene-3-carboxamide]",13
28,"Cc1sc(-c2cccc(OC(F)F)c2)cc1C(=O)Nc1nc(CN2CCOCC2)ns1 [Compound C-57, 5-(3-(Difluoromethoxy)phenyl)-2-methyl-N-(3-(morpholinomethyl)-1,2,4-thiadiazol-5-yl)thiophene-3-carboxamide]",13.3
29,"Cc1oc(C(=O)Nc2nc(CN3CCN(C)CC3)ns2)cc1-c1cccc(OC(F)F)c1 [Compound F-28, 4-(3-(Difluoromethoxy)phenyl)-5-methyl-N-(3-((4-methylpiperazin-1-yl)methyl)-1,2,4-thiadiazol-5-yl)furan-2-carboxamide]",16.4
30,"CCN(CC)C(C)Cc1nsc(NC(=O)c2csc(-c3cccc(C(F)(F)F)c3)c2)n1 [Compound D-7, N-(3-(2-(diethylamino)propyl)-1,2,4-thiadiazol-5-yl)-5-(3-(trifluoromethyl)phenyl)thiophene-3-carboxamide]",23.2
